Experimental data reported in patent publication US12559784B2 (priority 2023, dated 2026).
Like-named read-outs stand apart in the source and are kept apart here.

How the values were obtained:
skin = settings: cited from earlier work
alkaline phosphatase = assay type: biochemical
Experimental: New stocks were made the of the 1:100 alkaline phosphatase reaction reagents.
The conditions included: 1:100 dilution of alkaline phosphatase reaction reagent with two solvents (buffered saline and ethanol), dosing in 0.5 mL microcentrifuge tubes with 20 μL of chemical added to 180 μL of reaction reagent, and incubating with p-Nitrophenyl phosphate disodium salt (PNPP) substrate for 1-hour.

[1] = skin, chemical lists of the experiments

Structure (SMILES) | in vivo GHS (skin; [1]) | A2 - Results AVG (alkaline phosphatase) | A2 - Results R1 (alkaline phosphatase) | A2 - Results R3 (alkaline phosphatase) | in vivo GHS (skin; rabbit, in vivo)
CC(C)=CCC/C(C)=C/CO | Cat. 2 | 1.894 | 1.876 | 1.956 | –
C=C(C)[C@@H]1CC=C(CO)CC1 [p-Metha-1,8-dien-7-ol] | Cat. 2 | 2.793 | 2.757 | 2.868 | –
CC(CC=O)CCCC(C)(C)O (stereo not drawn) [Hydroxycitronellal] | – | 2.585 | 2.513 | 3.089 | –
OCCc1ccccc1 [Phenylethyl alcohol] | – | 3.303 | 3.342 | 3.287 | –
CC(=O)OCc1ccccc1 [Benzyl Acetate] | – | 3.385 | 3.42 | 3.484 | –
CC(C)O [Isopropanol] | – | 2.528 | 2.294 | 2.389 | –
CC(C)(C)c1ccccc1O [2-tert-Butylphenol] | – | 2.615 | 2.829 | 2.448 | –
O=C(OCc1ccccc1)c1ccccc1O [Benzyl Salicylate] | – | 3.317 | 3.345 | 3.333 | –
CC/C=C\CC1=C(C)CCC1=O | – | 2.527 | 2.405 | 2.704 | Cat. 2
CCCCCCCCCCCCCC(=O)OC(C)C [Isopropyl Myristate] | – | 3.339 | 3.413 | 3.360 | –
CC1=CCC(C(C)(C)O)CC1 (stereo not drawn) [alpha-Terpineol] | – | 2.589 | 2.223 | 2.793 | Cat. 2
CCCCCBr [1-Bromopentane] | Cat. 2 | 2.686 | 2.590 | 2.598 | –
CCCCCCCCCCO [1-Decanol] | – | 2.373 | 2.205 | 2.472 | Cat. 2
